Results reported in patent publication US9862754B2, “Peptide analogs for treating diseases and disorders” (KeyBioscience AG, priority 2011, dated 2018).
Bridge positions count the residues as written; N and C are the ends. Ends that are not written are not given here.

Assays:
[1] = target: T1, T47D cell calcitonin receptors (Homo sapiens, UniProt P30988); assay: Example 4: T47D bioassay, binding of sCT analogs to T47D cell calcitonin receptors (cAMP); type: cell-based; settings: T47D cells; sCT set at 100% at 1000 pg/mL; various concentrations
T1 construct: This cell line is known to have the following receptors: calcitonin, androgen, progesterone; endogenous in cells; host or cells: T47D (human breast epithelial cell line)
T1 sequence (P30988 25-474): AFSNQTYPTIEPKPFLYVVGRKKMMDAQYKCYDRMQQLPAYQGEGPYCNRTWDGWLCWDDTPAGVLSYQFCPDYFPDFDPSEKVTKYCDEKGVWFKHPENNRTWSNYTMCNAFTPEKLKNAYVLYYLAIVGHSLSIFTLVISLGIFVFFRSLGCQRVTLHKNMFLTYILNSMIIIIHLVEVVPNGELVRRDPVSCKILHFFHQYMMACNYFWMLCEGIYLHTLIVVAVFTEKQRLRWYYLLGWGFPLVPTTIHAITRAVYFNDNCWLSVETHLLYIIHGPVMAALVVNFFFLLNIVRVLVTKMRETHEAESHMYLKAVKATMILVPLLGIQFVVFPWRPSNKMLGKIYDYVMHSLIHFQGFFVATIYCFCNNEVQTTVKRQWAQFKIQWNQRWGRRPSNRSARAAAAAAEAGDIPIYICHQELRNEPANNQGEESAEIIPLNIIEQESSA
Procedure: sCT analogs at various concentrations were tested in a T47D (human breast epithelial cell line) bioassay. This cell line is known to have the following receptors: calcitonin, androgen, progesterone, glucocrticoid, prolactin and estrogen. The results are presented in FIG. 11 as % cAMP binding relative to sCT which was set at 100% cAMP binding at a concentration of 1000 pg/mL.

[2] = Example 7: oral glucose tolerance test in Zucker Diabetic Fatty rats; type: in vivo, rat; settings: ZDF rats; metformin 400 mg/kg/day oral, UGP302 5 μg/kg/day s.c.
Procedure: To assess the potential of UGP302 (SEQ ID NO: 15) in combination with metformin, Zucker Diabetic Fatty rats were used. At the age of 6 weeks 40 rats were randomized into four groups according to HbA1c, FPG and BW. The groups were: Control (Vehicle), Metformin 400 mg/kg/day, UGP302 5 μg/kg/day and the combination of the two molecules in the stated respective amounts. The treatments were given once daily, and metformin was dosed orally, while UGP302 was given subcutaneously, and the animals were treated for 8 weeks. Fasting blood glucose (FPG) and non-fasted blood glucose (PPG) were monitored biweekly, while HbA1c was measured at termination.
To further assess the effect of both single doses of each molecule and the combination of these at those same doses, the rats underwent an oral glucose tolerance test (OGTT, FIGS. 23A-23B) and an insulin tolerance test (ITT, FIGS. 24A-24B).

[3] = Example 1: OGTT after 2 weeks of oral treatment in DIO rats; type: in vivo, rat; settings: after 2 weeks of treatment, overnight fasting, 1 mg/kg p.o., vs oral vehicle
Procedure: Drug administration by per oral (p.o.) gavage b.i.d. (7-8 am and 3-4 pm) during the study period and as single dose in the morning prior to start of OGTT.
(§1) Animals were given 2 g/kg single dose dissolved in milliQ H20.
(§2) OGTT Following Overnight Fasting (16 h):
Blood sampling and glycemia were measured by heated tail venous puncture.
Whole blood glucose levels were determined with an ACCU-CHEK® Avia blood glucose meter (Roche Diagnostics, Rotkreuz, Switzerland). Blood (approx 300 ul) is collected in 1 ml MiniCollect K3EDTA plasma-tube (Greiner-Bio-One GmbH, Frickenhausen, Germany), inverted, and stored on ice. Tubes are centrifuged 3000×g (5000 rpm in table centrifuge) for 10 min at 4° C. and plasma obtained. Plasma samples are stored at −20° C. until analysis. A total of ˜2.5 ml blood is obtained during OGTT (˜0.3% of body weight).
Statistical analysis was performed by one-way ANOVA followed by the Dunnett's post hoc test for multiple comparison. Student's t-test was performed to compare two paired group. All analysis was performed using GRAPHPAD PRISM software (GraphPad Prism, San Diego, Calif. U.S.A). Incremental area under curve (iAUC) during OGTT was calculated by the trapezoidal method. A value of P<0.05 was considered to be significant. All data are presented as mean±standard error of the mean (SEM). […]

[4] = Example 2: OGTT after 3 days of oral treatment in DIO rats; type: in vivo, rat; settings: 0.5, 1 and 2 mg/kg p.o. b.i.d. 3 days prior to OGTT, cross-over, vs oral vehicle
Procedure: Drug administration were given by per oral (p.o.) gavage b.i.d. during the study period and as single dose in the morning prior to start of OGTT.
as §1
Following the initial (1st) OGTT, animals are randomized into treatment groups based on FBG and BW. Animals will be pre-treated 3 days (b.i.d.) prior to 2nd OGTT. Dosing will be performed in the morning (7-8 am) and afternoon (3-4 pm).
The study was performed in an x-over design with each animal being its own control.
as §2
Whole blood glucose levels were determined with an ACCU-CHEK® Avia blood glucose meter (Roche Diagnostics, Rotkreuz, Switzerland). […]
Statistical analysis was performed by one-way ANOVA followed by the Dunnett's post hoc test for multiple comparison. […] Incremental area under curve (iAUC) during OGTT was calculated by the trapezoidal method. […]
Three different doses of oral sCT/calcitonin mimetic 1 containing 0.5, 1 and 2 mg/kg compound were applied by gavage twice daily to 4 groups of rats for 3 days prior to OGTT. […] FIG. 7A and FIG. 7B show the effect of oral sCT versus oral UGP 302 at a first dosage on glucose tolerance during OGTT in DIO rats as measured in Example 2. FIG. 8A and FIG. 8B show the effect of oral sCT versus oral UGP 302 at a second dosage on glucose tolerance during OGTT in DIO rats as measured in Example 2.

| Substance | % cAMP binding relative to sCT [1] | glucose tolerance (OGTT) [2] | glucose iAUC during OGTT [3] | glucose iAUC during OGTT [4] |
| --- | --- | --- | --- | --- |
| Ac-CSNLSTCVLGKLSQELHKLQTYPRTDVGANAP-NH2 (Ac-CSNLSTCVLGKLSQELHKLQTYPRTDVGANAP-NH2; ends and bridges not checked) [UGP302, calcitonin mimetic] | highest level of binding of all the tested compounds | individually improve | – | – |
| salmon calcitonin (CSNLSTCVLGKLSQELHKLQTYPRTNTGSGTP-NH2; disulfide 1-7; ends not checked) [sCT, reference compound] | – | – | significantly reduced glucose iAUC | significantly reduced glucose iAUC |
